For assay [1], the system named is human lung cancer cells A549 xenograft. The assay can be described thus: In-vivo growth of A549 xenografts in nude mice. Also noted: species or system BALB/c nude mice. To be noted: Mus musculus, ip, vs DMSO solvent control, read-out: Curative effect (inhibition rate %) of tumor weight; for inhibition in vivo at 60 mg/kg: 60 mg/kg intraperitoneal once a day; for inhibition in vivo at 90 mg/kg: 90 mg/kg intraperitoneal once a day. As for the experimental part: RPMI1640 and DMEM culture solutions: Hyclone Company; inactivated fetal bovine serum: Hyclone Company, preserved at −20° C.; trypsin: Amersco Company; and 0.4% trypan blue: Sigma Company;
(3) Observation of growth of tumors in nude mice: the activities (including food intake, traits of urine and stool, mental state and the like) of the nude mice and the tumor growth time and growth situation of the transplanted tumors were observed every day, the body weight and the size of the tumors were measured once every 2-3 days. The long diameter a and the short diameter b (mm) of each tumor were measured by a vernier caliper to calculate the volume, wherein the volume V=π1/2·ab^2 (mm^3);
(4) sacrifice of animals: the mice were anesthetized and photoed after treatment experiments; the nude mice were sacrificed by breaking neck, the tumor tissues were stripped under sterile conditions and the weight of the tumors was weighed; and the effects of the drugs on pathology and toxicity of the various organs and tissues were detected.

The subject of assay [2] is human lung cancer cells A549. The assay can be described thus: MTT growth inhibition, A549 cells. The assay is classed as cell-based. To be noted: 72 h after treatment, read-out: Drug concentration (IC50) at which 50% cancer cells survived.
For assay [3], the system named is nucleoprotein factor NF-κB (p65)-DNA binding activity. The assay can be described thus: NF-κB (p65)-DNA binding activity (EMSA). The assay is classed as cell-based. An excerpt: The in-vitro experiment of the inhibitory effect against the NF-κB(p65)-DNA binding activity was applied with the chemiluminescent EMSA kit of Pierce Biotechnology Company of the U.S., the experimental method was strictly operated according to the description of the kit and the specific procedure were as follows:
(1) Preparation of EMSA gel
The cells treated by the drugs were extracted by the nucleoprotein extract solution (provided by Beyotime Biotechnology of Institute) to obtain the nucleoprotein extracts, and 10 μg/pipe of the nucleoprotein extracts were respectively used for sample reaction and electrophoresis detection and analysis shown in the following table.
(2) Pre-electrophoresis: the gel was fixed in an electrophoresis tank, which was filled with a 0.5×TBE electrophoresis buffer solution, and electrophoresed under 10V/cm for 90 min. The probe binding reaction was as follows:
The components were added in sequence into the EP pipe according to the above table, uniformly mixed and stood at room temperature for 15 min to eliminate possible non-specific binding of probe and protein. 1 μl of biotin-labeled probe NF-κB was respectively added and stood at room temperature for 20 min.
(4) Film transfer: the process of transferring the nucleoprotein factors and the binding probe on the EMSA gel to the nylon film was electrically transferred under 380 mA in ice bath for 40 min.
(5) Ultraviolet cross-linking: the nylon film was placed under a 254 nm ultraviolet lamp and irradiated for 15 min.
(6) Detection of the biotin-labeled probe by chemiluminescence: the cross-linked nylon film was blocked with the blocking solution, a treated film was subjected to X-ray exposure, developing, and fixation according to the requirements of the kit, and the results were analyzed.
(Mobility shift assays separate free from complexed probe on a gel.)

A further assay has as its system MMP-9. The assay can be described thus: Western Blotting, MMP9 level. The assay is classed as cell-based. To be noted: human liver cancer cells, Lewis lung cancer cells and other cancer cell lines and tumor tissues, read-out: Effective concentration (IC50) for inhibition of MMP9. The text has this:
(§1) Antibodies: primary antibodies of VEGFR, EGFR, c-Met, K-Ras, H-Ras, Akt, NF-κB, Cyclin D1, ER-alpha, Dvl-1, Dvl-2, Dvl-3, MMP-9, MMP2, β-catenin, Bcl-2, Bax, p53, p21, E-cadherin and Caspase3 protein, purchased from American Cell Signaling Technology Company and Santa Cruz Technology Company; and H3 acetylation, H4 acetylation and HDAC (HDAC3, HDAC4 and the like) Antibody Sample Kits, purchased from Cell Signaling Technology Company of the U.S.
(§2) (3) polyacrylamide gel electrophoresis (SDS-PAGE): an equal amount of protein lysate sample was used to separate protein, film transfer, and blocking, treated with appropriate primary antibodies and secondary antibodies in sequence, and the film was washed, then the color was developed with ECL kit, and a blot protein band was detected by exposure of an X-ray film; and a Gel-Pro Analyzer was used for quantitative analysis of gray degree, optical density value of the control group and the drug treatment group in various concentration were respectively compared with that of internal reference, the obtained ratios were respectively compared with the control group, and the protein expression level was semi-quantified.

The next assay relates to Dvl-2. Kind of assay: Western Blotting, Dvl-2 level. As to conditions: human liver cancer cells, Lewis lung cancer cells and other cancer cell lines and tumor tissues, read-out: Effective concentration (IC50) for inhibition of Dvl-2. The assay is classed as cell-based.
Source text: as §1, §2
On the technique in general: A western blot detects proteins with antibodies after separation by electrophoresis.

[4] abbreviates: A549 cells, EMSA, nuclear protein extracts, 48 h, read-out: Effective concentration for 50% inhibition of binding of nucleoprotein factor NF-kB (p65) and DNA.
Where [5] appears, read: SMMC7721 cells, EMSA, nuclear protein extracts, 48 h, read-out: Effective concentration for 50% inhibition of binding of nucleoprotein factor NF-kB (p65) and DNA.
Setting [6] is: human liver cancer cells, Lewis lung cancer cells and other cancer cell lines and tumor tissues, read-out: Effective concentration (IC50) for inhibition of NF-κB-DNA binding activity.
Where [7] appears, read: MCF7 cells, EMSA, nuclear protein extracts, 48 h, read-out: Effective concentration for 50% inhibition of binding of nucleoprotein factor NF-kB (p65) and DNA.
The mark [8] stands for this setting: MDA-MB231 cells, EMSA, nuclear protein extracts, 48 h, read-out: Effective concentration for 50% inhibition of binding of nucleoprotein factor NF-kB (p65) and DNA.
Setting [9] is: Hela cells, EMSA, nuclear protein extracts, 48 h, read-out: Effective concentration for 50% inhibition of binding of nucleoprotein factor NF-kB (p65) and DNA.
The mark [10] stands for this setting: PANC-1 cells, EMSA, nuclear protein extracts, 48 h, read-out: Effective concentration for 50% inhibition of binding of nucleoprotein factor NF-kB (p65) and DNA.

Each structure is given as a SMILES string. Where two headings read alike, the source gives them in different places.

In the case of `CCNC(=O)CC[C@H](N)C(=O)OC` [Compound IIa, theanine methyl ester], in assay [1], the inhibition in vivo at 60 mg/kg was 29.6% and the inhibition in vivo at 90 mg/kg stood at 31.7%. The IC50 in assay [2] worked out at 650 ± 30 µM.
Consider `CCNC(=O)CCC(NC(=O)c1cc2ccccc2oc1=O)C(=O)OCC` (centres unmarked) [Compound Ib, ethyl 5-ethylamino-5-oxo-2-(2-oxo-2H-benzopyran-3-carboxamido)pentanoate], for which the inhibition in vivo at 60 mg/kg in assay [1] was 53.6%. Besides, in assay [1], the inhibition in vivo at 90 mg/kg stood at 60.6%. Further, the IC50 was less than 135 µM in assay [3] (setting [4]), less than 120 µM in assay [3] (setting [5]), less than 130 µM in assay [3] (setting [6]) and 125 ± 50 µM in assay [2].
Consider `CCNC(=O)CCC(NC(=O)c1cc2cc(F)ccc2oc1=O)C(=O)OCC` (stereo in doubt) [Compound Ie, (R)-2-(6-F-2-oxo-2H-benzopyran-3-carboxamido)-5-ethylamino-5-oxo-pentanoic acid ethyl ester], for which the inhibition in vivo at 60 mg/kg in assay [1] stood at 55.5%. Besides, in assay [1], the inhibition in vivo at 90 mg/kg turned out to be 61.5%. Further, the IC50 in assay [3] (setting [4]) was less than 120 µM; in assay [3] (setting [7]) it was less than 100 µM; in assay [3] (setting [8]) it was less than 110 µM; in assay [3] (setting [5]) it was less than 121 µM; in assay [3] (setting [6]) it was less than 100 µM; in assay [2] it was 141 µM.
Regarding `CCNC(=O)CC[C@@H](NC(=O)c1cc2cc(Br)cc(Br)c2oc1=O)C(=O)OCC` [Compound Ih, (R)-2-(6,8-dibromo-2-oxo-2H-benzopyran-3-carboxamido)-5-ethylamino-5-oxo-pentanoic ethyl ester], the IC50 is less than 65 µM in the assay on MMP-9; less than 70 µM in assay [3] (setting [4]); less than 70 µM in assay [3] (setting [9]); less than 70 µM in assay [3] (setting [7]); less than 70 µM in assay [3] (setting [8]); less than 70 µM in assay [3] (setting [10]). The IC50 in assay [3] (setting [5]) was less than 70 µM; in assay [3] (setting [6]) it was less than 125 µM; in the assay with Dvl-2 it was less than 100 µM; in assay [2], 56 µM. The inhibition in vivo at 60 mg/kg in assay [1] is 53.8%. In addition, the inhibition in vivo at 90 mg/kg in assay [1] came out at 63.8%.
Consider `CCNC(=O)CC[C@@H](NC(=O)c1cc2cc(Cl)cc(Cl)c2oc1=O)C(=O)OCC` [Compound Ig, (R)-2-(6,8-dichloro-2-oxo-2H-benzopyran-3-carboxamido)-5-ethylamino-5-oxo-pentanoic ethyl ester], for which the IC50 is less than 65 µM with MMP-9; less than 70 µM in assay [3] (setting [4]); less than 70 µM in assay [3] (setting [9]); less than 70 µM in assay [3] (setting [7]); less than 70 µM in assay [3] (setting [8]); less than 70 µM in assay [3] (setting [10]). The IC50 in assay [3] (setting [5]) was less than 70 µM; in assay [3] (setting [6]), less than 125 µM; with Dvl-2, less than 100 µM; in assay [2], 45 µM. Moreover, in assay [1], the inhibition in vivo at 60 mg/kg came out at 56.6%. Also, in assay [1], the inhibition in vivo at 90 mg/kg was 66.6%.
As to `CCNC(=O)CCC(NC(=O)c1cc2cc([N+](=O)[O-])ccc2oc1=O)C(=O)OCC` (stereo in doubt) [Compound If, (R)-2-(6-nitro-2-oxo-2H-benzopyran-3-carboxamido)-5-ethylamino-5-oxo-pentanoic acid ethyl ester], in assay [1], the inhibition in vivo at 60 mg/kg was 58.6%. In addition, the inhibition in vivo at 90 mg/kg in assay [1] worked out at 64.6%. The IC50 is less than 100 µM in assay [3] (setting [4]); less than 100 µM in assay [3] (setting [7]); less than 100 µM in assay [3] (setting [8]); less than 100 µM in assay [3] (setting [5]); less than 100 µM in assay [3] (setting [6]); 122 µM in assay [2].
For the compound `CCNC(=O)CCC(NC(=O)c1cc2ccccc2oc1=O)C(=O)OC` (centres unmarked) [Compound Ia, methyl 5-ethylamino-5-oxo-2-(2-oxo-2H-benzopyran-3-carboxamido)pentanoate], in assay [1], the inhibition in vivo at 60 mg/kg came out at 48.6%. Also, the inhibition in vivo at 90 mg/kg in assay [1] was determined as 51.6%. Moreover, the IC50 was less than 135 µM in assay [3] (Lewis lung cancer cells, EMSA, nuclear protein extracts, 48 h, read-out: Effective concentration for 50% inhibition of binding of nucleoprotein factor NF-kB (p65) and DNA); less than 125 µM in assay [3] (setting [5]); less than 135 µM in assay [3] (setting [6]); 300 ± 60 µM in assay [2].
With `CCNC(=O)CC[C@@H](NC(=O)c1cc2cc(Cl)ccc2oc1=O)C(=O)OCC` [Compound Ic, (R)-2-(6-CI-2-oxo-2H-benzopyran-3-carboxamido)-5-ethylamino-5-oxo-pentanoic acid ethyl ester], the inhibition in vivo at 60 mg/kg in assay [1] amounted to 61.6%. Moreover, the inhibition in vivo at 90 mg/kg in assay [1] worked out at 67.6%. The IC50 in assay [3] (setting [4]) was less than 125 µM; in assay [3] (setting [7]) it was less than 125 µM; in assay [3] (setting [8]) it was less than 125 µM; in assay [3] (setting [5]) it was less than 125 µM; in assay [3] (setting [6]) it was less than 125 µM; in assay [2], 128 ± 60 µM.
Consider `CCNC(=O)CC[C@H](N)C(=O)OCC` [Compound IIb, theanine ethyl ester], for which, in assay [1], the inhibition in vivo at 60 mg/kg was 33.3% and the inhibition in vivo at 90 mg/kg was 38.6%. Further, in assay [2], the IC50 worked out at 500 ± 30 µM.
Turning to `CCNC(=O)CC[C@@H](NC(=O)c1cc2cc(Br)ccc2oc1=O)C(=O)OCC` [Compound Id, (R)-2-(6-Br-2-oxo-2H-benzopyran-3-carboxamido)-5-ethylamino-5-oxo-pentanoic acid ethyl ester], the inhibition in vivo at 60 mg/kg in assay [1] is 63.6%. Besides, in assay [1], the inhibition in vivo at 90 mg/kg was 69.6%. The IC50 was less than 110 µM in assay [3] (setting [4]); less than 100 µM in assay [3] (setting [7]); less than 100 µM in assay [3] (setting [8]); less than 80 µM in assay [3] (setting [5]); less than 120 µM in assay [3] (setting [6]); 139 ± 50 µM in assay [2].

The values above are taken from US9518038B2, “Condensation product of theanine derivative and carboxylic acid coumarin derivative, its intermediate, preparation method and use thereof” (SHANDONG YINGDONG YINGHAO BIOTECHNOLOGY, INC., priority 2012, dated 2016).
